Here are results for 23 compounds from patent publication US20240368120A1 (Terns Pharmaceuticals, Inc., priority 2023, published 2024).

The assay concerns the target T1, human GLP-1R receptor (Homo sapiens, UniProt P43220).
T1 construct: expressed in transfected cells
Put plainly: GLP-1R low expression cell assay (cAMP TR-FRET, CHO-K1_hGLP-1Rlow_clone10 cells). The format is cell-based. The conditions noted are these: for EC50: cAMP TR-FRET, 30 min at 25° C. In outline: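 CHO-K1 cells stably expressing low surface human GLP-1R (clone10), 1,000 cells/well, exposed to 10-point 3-fold compound dilutions for 30 min at 25 °C. cAMP measured by TR-FRET (Eu-cAMP tracer/ULight-anti-cAMP, 15 min). EC50 from Hill fit of duplicate percent activation relative to a parallel GLP-1 control agonist.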
(In general: In TR-FRET formats the signal depends on donor and acceptor labels being close together.)

Setting [1] is: maximum activation relative to control GLP-1 peptide agonist.

T1 sequence (P43220 24-463): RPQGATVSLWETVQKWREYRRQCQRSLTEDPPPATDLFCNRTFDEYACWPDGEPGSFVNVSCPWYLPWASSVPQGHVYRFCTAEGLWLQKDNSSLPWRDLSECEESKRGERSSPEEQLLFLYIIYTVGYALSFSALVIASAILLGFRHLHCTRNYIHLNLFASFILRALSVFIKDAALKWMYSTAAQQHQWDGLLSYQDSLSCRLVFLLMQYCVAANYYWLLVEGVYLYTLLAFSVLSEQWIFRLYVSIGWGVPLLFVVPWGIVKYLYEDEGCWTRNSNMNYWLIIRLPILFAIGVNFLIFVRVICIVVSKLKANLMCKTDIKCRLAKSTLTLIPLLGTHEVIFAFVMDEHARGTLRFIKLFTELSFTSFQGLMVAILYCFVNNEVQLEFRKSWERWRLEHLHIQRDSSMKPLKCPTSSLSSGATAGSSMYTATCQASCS

Regarding `N#Cc1ccc(COc2cccc(C3CCN(Cc4nc5c6c(c(C(=O)O)cc5n4C[C@@H]4CCO4)OCCO6)CC3)n2)c(F)c1` [Compound 100, (S)-2-((4-(6-((4-Cyano-2-fluorobenzyl)oxy)pyridin-2-yl)piperidin-1-yl)methyl)-3-(oxetan-2-ylmethyl)-7,8-dihydro-3H-[1,4]dioxino[2′,3′:3,4]benzo[1,2-d]imidazole-5-carboxylic acid], the EC50 was less than 10 nM. The Emax under setting [1] is more than 85%.
On the same counts, the results for `Cn1c(CN2CCC(c3cccc(OCc4ccc(C(F)(F)F)cn4)n3)CC2)nc2c(OC(F)F)cc(C(=O)O)cc21` [Compound 229, 4-(Difluoromethoxy)-1-methyl-2-((4-(6-((5-(trifluoromethyl)pyridin-2-yl)methoxy)pyridin-2-yl)piperidin-1-yl)methyl)-1H-benzo[d]imidazole-6-carboxylic acid] are 100 to 1000 nM and more than 85%.
The matching figures for `[2H]C([2H])(Oc1cccc(C2CCN(C([2H])([2H])c3nc4c(OC(F)F)cc(C(=O)O)cc4n3C)CC2)n1)c1ccc(Cl)cc1F` [Compound 321, 2-((4-(6-((4-Chloro-2-fluorophenyl)methoxy-d2)pyridin-2-yl)piperidin-1-yl)methyl-d2)-4-(difluoromethoxy)-1-methyl-1H-benzo[d]imidazole-6-carboxylic acid]: 10 to 100 nM and more than 85%.
The compound `CC(=O)Nc1cc(C(=O)O)cc2c1nc(CN1CCC(c3cccc(OCc4ccc(C#N)cc4F)n3)CC1)n2C` [Compound 116, 4-acetamido-2-((4-(6-((4-cyano-2-fluorobenzyl)oxy)pyridin-2-yl)piperidin-1-yl)methyl)-1-methyl-1H-benzo[d]imidazole-6-carboxylic acid] came in with an EC50 of 10 to 100 nM. This compound also showed a maximal effect (Emax) under setting [1] of more than 85%.
Take `Cn1c(CN2CCC(c3cccc(OCc4ccc(Cl)cc4F)n3)CC2)nc2c(O[C@H]3C[C@H](F)C3)cc(C(=O)O)cc21` [Compound 353, 2-((4-(6-((4-Chloro-2-fluorobenzyl)oxy)pyridin-2-yl)piperidin-1-yl)methyl)-4-((1r,3r)-3-fluorocyclobutoxy)-1-methyl-1H-benzo[d]imidazole-6-carboxylic acid]: the EC50 is 10 to 100 nM. The same compound displayed an Emax under setting [1] of more than 85%.
In turn, `O=C(O)c1cc(OC(F)F)c2c(c1)nc(CN1CCC(c3cccc(OCc4ccc(Cl)cc4F)n3)CC1)n2CF` [Compound 206, 2-((4-(6-((4-Chloro-2-fluorobenzyl)oxy)pyridin-2-yl)piperidin-1-yl)methyl)-7-(difluoromethoxy)-1-(fluoromethyl)-1H-benzo[d]imidazole-5-carboxylic acid] gave an EC50 of more than 1000 nM. The compound also displayed an Emax under setting [1] of less than 25%.
As to `N#Cc1ccc(COc2cccc(C3CCN(Cc4nc5ccc(C(=O)O)c(O)c5n4C[C@@H]4CCO4)CC3)n2)c(F)c1` [Compound 172, (S)-2-((4-(6-((4-cyano-2-fluorobenzyl)oxy)pyridin-2-yl)piperidin-1-yl)methyl)-7-hydroxy-1-(oxetan-2-ylmethyl)-1H-benzo[d]imidazole-6-carboxylic acid], the “GLP-1R Low Expression Cell Assay Emax (%)” value under setting [1] is on record as “+ (Emax is <25%)”.
`Cn1c(CN2CCC(c3cccc4c3O[C@@H](c3ccc(Cl)cc3F)CC4)CC2)nc2c(OC(F)F)cc(C(=O)O)cc21` [Compound 369, (R)-2-((4-(2-(4-Chloro-2-fluorophenyl)chroman-8-yl)piperidin-1-yl)methyl)-4-(difluoromethoxy)-1-methyl-1H-benzo[d]imidazole-6-carboxylic acid] yielded an EC50 of more than 1000 nM. Under setting [1], this compound had an Emax of less than 25%.
The compound `COCC(F)(F)Oc1cc(C(=O)O)cc2c1nc(CN1CCC(c3cccc(OCc4ccc(Cl)cc4F)n3)CC1)n2C` [Compound 227, 2-((4-(6-((4-Chloro-2-fluorobenzyl)oxy)pyridin-2-yl)piperidin-1-yl)methyl)-4-(1,1-difluoro-2-methoxyethoxy)-1-methyl-1H-benzo[d]imidazole-6-carboxylic acid] displayed an EC50 of less than 10 nM. Under setting [1], this compound displayed an Emax of more than 85%.
The matching figures for `Cn1c(CN2CCC(c3cccc(OCc4ccc(C#N)cc4F)n3)CC2)nc2c(N)cc(C(=O)O)cc21` [Compound 115, 4-amino-2-((4-(6-((4-cyano-2-fluorobenzyl)oxy)pyridin-2-yl)piperidin-1-yl)methyl)-1-methyl-1H-benzo[d]imidazole-6-carboxylic acid]: less than 10 nM and more than 85%.
The matching figures for `O=C(O)c1cc(OC(F)F)c2nc(CN3CCC(c4cccc(OCc5ccc(Cl)cc5F)n4)CC3)n(C3CC3)c2c1` [Compound 199, 2-((4-(6-((4-Chloro-2-fluorobenzyl)oxy)pyridin-2-yl)piperidin-1-yl)methyl)-1-cyclopropyl-4-(difluoromethoxy)-1H-benzo[d]imidazole-6-carboxylic acid]: 10 to 100 nM and more than 85%.
The matching figures for `Cn1c(CN2CCC(c3cccc(OCc4ccc(Cl)cc4F)n3)CC2)nc2c(OCC(F)(F)F)cc(C(=O)O)cc21` [Compound 224, 2-((4-(6-((4-Chloro-2-fluorobenzyl)oxy)pyridin-2-yl)piperidin-1-yl)methyl)-1-methyl-4-(2,2,2-trifluoroethoxy)-1H-benzo[d]imidazole-6-carboxylic acid]: 10 to 100 nM and more than 85%.
For the compound `N#Cc1ccc(COc2cccc(C3CCN(Cc4nc5c(O)cc(C(=O)O)cc5n4Cc4cncs4)CC3)n2)c(F)c1` [Compound 82, 2-((4-(6-((4-Cyano-2-fluorobenzyl)oxy)pyridin-2-yl)piperidin-1-yl)methyl)-4-hydroxy-1-(thiazol-5-ylmethyl)-1H-benzo[d]imidazole-6-carboxylic acid], the EC50 is less than 10 nM. In addition, under setting [1], the Emax was more than 85%.
On the same counts, the results for `O=C(O)c1cc(OCF)c2nc(CN3CCC(c4cccc(OCc5ccc(Cl)cc5F)n4)CC3)n(CF)c2c1` [Compound 346, 2-((4-(6-((4-Chloro-2-fluorobenzyl)oxy)pyridin-2-yl)piperidin-1-yl)methyl)-4-(fluoromethoxy)-1-(fluoromethyl)-1H-benzo[d]imidazole-6-carboxylic acid] are 10 to 100 nM and more than 85%.
On the same counts, the results for `COc1cc(C#N)ccc1COc1cccc(C2CCN(Cc3nc4c(OC)cc(C(=O)O)cc4n3C)CC2)n1` [Compound 344, 2-((4-(6-((4-Cyano-2-methoxybenzyl)oxy)pyridin-2-yl)piperidin-1-yl)methyl)-4-methoxy-1-methyl-1H-benzo[d]imidazole-6-carboxylic acid] are less than 10 nM and more than 85%.
The matching figures for `Cn1c(CN2CCC(c3cccc(OCc4ccc(C#N)cc4F)c3Cl)CC2)nc2c(OC(F)F)cc(C(=O)O)cc21` [Compound 179, 2-((4-(2-Chloro-3-((4-cyano-2-fluorobenzyl)oxy)phenyl)piperidin-1-yl)methyl)-4-(difluoromethoxy)-1-methyl-1H-benzo[d]imidazole-6-carboxylic acid]: more than 1000 nM and 25 to 50%.
In turn, `Cn1c(CN2CCC(c3cccc(F)c3OCc3ccc(Cl)cc3F)CC2)nc2c(OC(F)F)cc(C(=O)O)cc21` [Compound 140, 2-((4-(2-((4-Chloro-2-fluorobenzyl)oxy)-3-fluorophenyl)piperidin-1-yl)methyl)-4-(difluoromethoxy)-1-methyl-1H-benzo[d]imidazole-6-carboxylic acid] showed an EC50 of 10 to 100 nM. The Emax under setting [1] was more than 85%.
The matching figures for `Cn1c(CN2CCC(c3cccc(OCc4ccc(Cl)cc4F)n3)CC2)nc2c(OC(F)F)c(C(=O)O)ccc21` [Compound 220, 2-((4-(6-((4-Chloro-2-fluorobenzyl)oxy)pyridin-2-yl)piperidin-1-yl)methyl)-4-(difluoromethoxy)-1-methyl-1H-benzo[d]imidazole-5-carboxylic acid]: more than 1000 nM and more than 85%.
The matching figures for `COc1cc(C(=O)O)cc2c1nc([C@@H](C)N1CCC(c3cccc(OCc4ccc(C#N)cc4F)n3)CC1)n2C[C@@H]1CCO1` [Compound 94, 2-((R)-1-(4-(6-((4-Cyano-2-fluorobenzyl)oxy)pyridin-2-yl)piperidin-1-yl)ethyl)-4-methoxy-1-(((S)-oxetan-2-yl)methyl)-1H-benzo[d]imidazole-6-carboxylic acid]: more than 1000 nM and more than 85%.
On the same counts, the results for `CCOc1cc(C(=O)O)cc2c1nc(CN1CCC(c3cccc4c3O[C@H](c3ccc(C#N)cc3F)CO4)CC1)n2C` [Compound 288, (R)-2-((4-(3-(4-Cyano-2-fluorophenyl)-2,3-dihydrobenzo[b][1,4]dioxin-5-yl)piperidin-1-yl)methyl)-4-ethoxy-1-methyl-1H-benzo[d]imidazole-6-carboxylic acid] are 10 to 100 nM and more than 85%.
On to `Cn1c(CN2CCC(c3cccc(OCc4ccc(C(F)F)cc4F)n3)CC2)nc2c(OC(F)F)cc(C(=O)O)cc21` [Compound 201, 4-(Difluoromethoxy)-2-((4-(6-((4-(difluoromethyl)-2-fluorobenzyl)oxy)pyridin-2-yl)piperidin-1-yl)methyl)-1-methyl-1H-benzo[d]imidazole-6-carboxylic acid], for which the EC50 was 10 to 100 nM. This compound also gave an Emax under setting [1] of more than 85%.
On to `COCCc1nc(C(=O)O)cc2c1nc(CN1CCC(c3cccc(OCc4ccc(C#N)cc4F)n3)CC1)n2C` [Compound 107, 2-((4-(6-((4-cyano-2-fluorobenzyl)oxy)pyridin-2-yl)piperidin-1-yl)methyl)-4-(2-methoxyethyl)-1-methyl-1H-imidazo[4,5-c]pyridine-6-carboxylic acid], for which the EC50 was more than 1000 nM. In addition, the Emax under setting [1] fell in the range of 50 to 85%.
On the same counts, the results for `C[C@H](c1nc2c(OC(F)F)cc(C(=O)O)cc2n1C)N1CCC(c2cccc(OCc3ccc(C#N)cc3F)n2)CC1` [Compound 122, (R)-2-(1-(4-(6-((4-Cyano-2-fluorobenzyl)oxy)pyridin-2-yl)piperidin-1-yl)ethyl)-4-(difluoromethoxy)-1-methyl-1H-benzo[d]imidazole-6-carboxylic acid] are more than 1000 nM and more than 85%.

Usually EC50 stands for the concentration at which the effect is half-maximal. The low end stands for greater potency, the high end for weaker potency. In general, Emax refers to the greatest response seen or fitted, relative to the assay's reference.
